# Like-named read-outs stand apart in the source and are kept apart here. Non-standard residues stand in square brackets, D forms with d. Residues, ends and D or L forms follow the SMILES beside them. Sar = CNCC(=O)O
# Tested on: MG-63 cells
# [1] = Table III, phenylalanine as a hydrophobic domain, 100 μg/well
# Description: The peptides were solubilized in 70% EtOH at a starting concentration of 1 mg/ml. […] The remaining wells contained 100 μl of 70% EtOH. Taking 100 μl from the 1 mg/ml solution in the first two wells, a serial dilution was performed out to 0.15 μg/well for each peptide. The plates were allowed to dry overnight at 37° C. in the presence of a desiccator.
# The following day the peptide coated plates were used in a standard adhesion assay as described in Example III, using MG-63 cells, an osteosarcoma cell line available from American Type Tissue Culture.
# The plates were washed lX using PBS, (151 mM NaCl/10 mM sodium phosphate, pH 7.4). The plates were incubated with DMEM (0.1 ml/well) containing bovine serum albumin (BSA 2.5 mg/ml; Sigma Chemical Co., St. Louis, Mo.) for one hour. Two×10^5 cells/ml (MG-63) were suspended in DMEM, and BSA (2.5 mg/ml). 100 μl of cell suspension was added per well and the plates are incubated at 37° C. in 7.5% CO2 /92.5% air for one hour. Afterwards, the plate was washed once in PBS. Attached cells were then fixed with 3% paraformaldehyde and stained overnight with 1% toluidine blue in 10% formaldehyde. The following day, the excess stain was removed and the plates were washed with H2 O; 100 μl of a 1% sodium dodecyl sulfate (SDS) solution was added to each well. The level of cell attachment was then measured, using a kinetic microplate reader (Molecular Devices,) by assessing the optical density at 630 nm.
Compound,percentage of maximum binding (cell attachment),percentage of maximum binding (cell attachment) [1],"percentage of maximum binding (cell attachment) (Table III, 1.5 μg/well)","percentage of maximum binding (cell attachment) (Table III, 3 μg/well)","percentage of maximum binding (cell attachment) (Table III, 6 μg/well)","percentage of maximum binding (cell attachment) (Table III, 12 μg/well)","percentage of maximum binding (cell attachment) (Table III, 25 μg/well)","percentage of maximum binding (cell attachment) (Table III, 50 μg/well)",other results
XG(R)GDSPASSKL4 NH2 [Peptide L4],–,–,–,–,–,–,–,–,"percentage of maximum binding (cell attachment) (Table II, 1.5 μg/well peptide, MG-63 cells): 1 percentage of maximum binding; percentage of maximum binding (cell attachment) (Table II, 3 μg/well peptide, MG-63 cells): 1 percentage of maximum binding; percentage of maximum binding (cell attachment) (Table II, 6 μg/well peptide, MG-63 cells): 2 percentage of maximum binding; percentage of maximum binding (cell attachment) (Table II, 12 μg/well peptide, MG-63 cells): 10 percentage of maximum binding; percentage of maximum binding (cell attachment) (Table II, 25 μg/well peptide, MG-63 cells): 16 percentage of maximum binding; percentage of maximum binding (cell attachment) (Table II, 50 μg/well peptide, MG-63 cells): 12 percentage of maximum binding; percentage of maximum binding (cell attachment) (Table II, 100 μg/well peptide dried onto well, MG-63 cells): 44 percentage of maximum binding; promotion of cell attachment (result in words) (peptide coated 100 to 1.5 μg/well, MG-63 cells, summary of Table II): promoted marginal cell attachment only at the highest concentration of 100 μg/well"
CNCC(=O)N[C@H](CCCNC(=N)N)C(=O)NCC(=O)N[C@@H](CC(=O)O)C(=O)N[C@@H](CO)C(=O)N1CCC[C@H]1C(=O)N[C@@H](C)C(=O)N[C@@H](CO)C(=O)N[C@@H](CO)C(=O)N[C@@H](CCCCN)C(=O)N[C@@H](CO)C(=O)N[C@@H](CO)C(=O)N[C@@H](CO)C(=O)N[C@@H](CO)C(=O)N[C@@H](CCCNC(=N)N)C(=O)N[C@@H](CC(C)C)C(=O)N[C@@H](CC(C)C)C(=O)N[C@@H](CC(C)C)C(=O)N[C@@H](CC(C)C)C(=O)N[C@@H](CC(C)C)C(=O)N[C@@H](CC(C)C)C(=O)N[C@@H](CCCNC(=N)N)C(N)=O [nMeG(dR)GDSPASSKS4 RL6 RNH2] (H-[Sar][dR]GDSPASSKSSSSRLLLLLLR-NH2),76 percentage of maximum binding,–,–,–,–,–,–,–,–
CNCC(=O)N[C@H](CCCNC(=N)N)C(=O)NCC(=O)N[C@@H](CC(=O)O)C(=O)N[C@@H](CO)C(=O)N1CCC[C@H]1C(=O)N[C@@H](C)C(=O)N[C@@H](CO)C(=O)N[C@@H](CO)C(=O)N[C@@H](CCCCN)C(=O)N[C@@H](CO)C(=O)N[C@@H](CO)C(=O)N[C@@H](CCCNC(=N)N)C(=O)N[C@@H](CC(C)C)C(=O)N[C@@H](CC(C)C)C(=O)N[C@@H](CC(C)C)C(=O)N[C@@H](CC(C)C)C(=O)N[C@@H](CC(C)C)C(=O)N[C@@H](CC(C)C)C(=O)N[C@@H](CCCNC(=N)N)C(N)=O [nMeG(dR)GDSPASSKS2 RL6 RNH2] (H-[Sar][dR]GDSPASSKSSRLLLLLLR-NH2),38 percentage of maximum binding,–,–,–,–,–,–,–,–
nMEGRGDSPASSKRF6 RNH2,–,70 percentage of maximum binding,50 percentage of maximum binding,54 percentage of maximum binding,57 percentage of maximum binding,52 percentage of maximum binding,56 percentage of maximum binding,75 percentage of maximum binding,–
nMeGRGDSPASSKS3 RF6 RNH2,–,69 percentage of maximum binding,70 percentage of maximum binding,70 percentage of maximum binding,65 percentage of maximum binding,66 percentage of maximum binding,60 percentage of maximum binding,69 percentage of maximum binding,–
nMeG(dR)GDSPASSKRF4 RNH2 [nMeGRGDSPASSKRF4 RNH2],–,70 percentage of maximum binding,34 percentage of maximum binding,50 percentage of maximum binding,56 percentage of maximum binding,59 percentage of maximum binding,60 percentage of maximum binding,73 percentage of maximum binding,–
CNCC(=O)N[C@H](CCCNC(=N)N)C(=O)NCC(=O)N[C@@H](CC(=O)O)C(=O)N[C@@H](CO)C(=O)N1CCC[C@H]1C(=O)N[C@@H](C)C(=O)N[C@@H](CO)C(=O)N[C@@H](CO)C(=O)N[C@@H](CCCCN)C(=O)N[C@@H](CC(C)C)C(=O)N[C@@H](CC(C)C)C(=O)N[C@@H](CC(C)C)C(=O)N[C@@H](CC(C)C)C(=O)N[C@@H](CC(C)C)C(=O)N[C@@H](CC(C)C)C(N)=O [nMeG(dR)GDSPASSKL6 NH2] (H-[Sar][dR]GDSPASSKLLLLLL-NH2),9 percentage of maximum binding,–,–,–,–,–,–,–,–
CCCCCCCCCCCCCC(=O)O [Myristic acid],–,–,–,–,–,–,–,–,"percentage of maximum binding (cell attachment) (Table IV, myristic acid as hydrophobic carrier, 100 μg/well): 33 percentage of maximum binding; percentage of maximum binding (cell attachment) (Table IV, 6 μg/well): 45 percentage of maximum binding; percentage of maximum binding (cell attachment) (Table IV, 12 μg/well): 75 percentage of maximum binding; percentage of maximum binding (cell attachment) (Table IV, 25 μg/well): 50 percentage of maximum binding; percentage of maximum binding (cell attachment) (Table IV, 50 μg/well): 30 percentage of maximum binding"
nMeGRGDSPASSKRL5 RNH2,–,72 percentage of maximum binding,34 percentage of maximum binding,44 percentage of maximum binding,60 percentage of maximum binding,66 percentage of maximum binding,58 percentage of maximum binding,68 percentage of maximum binding,–

# Source: patent US5760176A, “Hydrophobic attachment site for adhesion peptides” (La Jolla Cancer Research Foundation, priority 1996, dated 1998)
